According to US4337267A, “Phenalkoxyalkyl- and phenoxyalkyl-substituted oxiranecarboxylic acids, their use and medicaments containing them” (Byk Gulden Lomberg Chemische Fabrik GmbH, priority 1980, dated 1982):
Like-named read-outs stand apart in the source and are kept apart here.

Assays:
[1] = test system: blood glucose concentration; assay: Determination of glucose in the blood after a single oral administration (fasting, metabolically healthy rats); type: in vivo, rat (young male Sprague-Dawley); settings: Rattus norvegicus
Experimental: Table I reflects investigations of the effect of representative compounds according to the invention on the blood glucose concentration of fasting, metabolically healthy rats which are observed for 6 hours after a single oral administration of from 0.01 to 0.6 mmol of substance/kg of body weight.
1. Determination of glucose in the blood after a single oral administration-
Young male Sprague-Dawley rats (body weight: 150 to 200 g) are used. The animals are kept in Makrolon cages with up to 4 animals per cage (ambient temperature: 23° C., relative atmospheric humidity: 55%, fixed day/night rhythm [12/12 hours], standard diet: Altromin®). The rats are deprived of the feed 18 hours before the first sample of blood is taken. Water is available ad libitum. Samples of blood are taken from the postorbital plexus by puncture immediately before and 3 and 6 hours after administration of the substance.
After deproteinization with perchloric acid, the glucose in the blood is determined by means of the enzymatic HK/G-6-PDH method of R. Richterich [Klinische Chemie, Theorie und Praxis, (Clinical Chemistry, Theory and Practice), 3rd edition, 1971, S. Karger Verlag, Zurich-Basle, page 275]. A control group (treated with pure solvent) is also investigated in each case for comparison.

in vivo = settings: mouse, po
Experimental: Column C provides data relating to acute toxicity (LD50; mice, peroral administration).
2. Determination of the toxicity-
Various doses of the substances (volume: 10 ml/kg) are administered orally by means of a stomach tube. The observation time is 7 days.

[2] = rats p.o., single dose, fasting, observed for 6 hours, with reference to control group, read-out: ED50 (15%): dose which effects a lowering of the blood glucose concentration by at least 15% in 50% of the animals
[3] = rats p.o., single dose, fasting, observed for 6 hours, with reference to control group, read-out: ED50 (25%): dose which effects a lowering of the blood glucose concentration by at least 25% in 50% of the animals

SMILES: CCCCNC(=N)NC(=N)N [Serial No. 1, Buformin, reference compound]
- ED50 ([1]; 6 h, read-out: ED50 (15%): dose which effects a lowering of the blood glucose concentration by at least 15% in 50% of the animals): > 100 mg/kg
- ED50 ([1]; 6 h, read-out: ED50 (25%): dose which effects a lowering of the blood glucose concentration by at least 25% in 50% of the animals): 194 mg/kg

SMILES: [H]/N=C(/N)N/C(=N/[H])NCCc1ccccc1 [Serial No. 2, Phenformin, reference compound]
- ED50 [1, 2]: > 150 mg/kg
- ED50 [1, 3]: > 343 mg/kg

SMILES: CCOC(=O)C1(CCCCOc2cccc(Cl)c2)CO1 (stereo not drawn) [Serial No. 3, 2-[4-(3-Chlorophenoxy)butyl]oxirane-2-carboxylic acid ethyl ester]
- ED50 [1, 2]: 3 mg/kg
- ED50 [1, 3]: 24 mg/kg
- LD50 at 168 h (in vivo): 390 mg/kg

SMILES: CCOC(=O)C1(CCCCOc2cccc(C(F)(F)F)c2)CO1 (stereo not drawn) [Serial No. 4, 2-[4-(3-Trifluoromethylphenoxy)butyl]oxirane-2-carboxylic acid ethyl ester]
- ED50 [1, 2]: ~7 mg/kg
- ED50 [1, 3]: 13 mg/kg
- LD50 at 168 h (in vivo): 460 mg/kg

SMILES: CCOC(=O)C1(CCCCCCOc2ccc(Cl)cc2)CO1 (stereo not drawn) [Serial No. 5, 2-[6-(4-Chlorophenoxy)hexyl]oxirane-2-carboxylic acid ethyl ester]
- ED50 [1, 2]: < 7 mg/kg
- ED50 [1, 3]: 7 mg/kg
- LD50 at 168 h (in vivo): 300 mg/kg

SMILES: CCOC(=O)C1(CCCCCOc2ccc(Cl)cc2)CO1 (stereo not drawn) [Serial No. 6, 2-[5-(4-Chlorophenoxy)pentyl]oxirane-2-carboxylic acid ethyl ester]
- ED50 [1, 2]: 5 mg/kg
- ED50 [1, 3]: 6 mg/kg
- LD50 at 168 h (in vivo): 310 mg/kg

SMILES: CCOC(=O)C1(CCCCOc2ccc(C)cc2)CO1 (stereo not drawn) [Serial No. 7, 2-[4-(4-Methylphenoxy)butyl]oxirane-2-carboxylic acid ethyl ester]
- ED50 [1, 2]: 8 mg/kg
- ED50 [1, 3]: 19 mg/kg
